Results filed as inconclusive are left out. Calls of active or inactive are those of the source. The rule behind the calls is not given here.
Each molecule was assayed on S. typhimurium/E. coli reverse mutation, colony counts (assay: Bacterial reverse mutation test (aka Ames test) summary data).
Outline: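 Revertant colony counts on plates, compared with untreated controls, after about two days of growth. Exposure with or without liver S9 (rat/hamster/mouse), dose range per strain, 20-min 37° C preincubation or direct plate incorporation. Strains: his⁻ Salmonella, trp⁻ E. coli WP2 uvrA pKM101.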

SMILES | outcome
NC(N)=NC(N)=NCCc1ccccc1 | inactive; negative
O=C1CCCCCN1 | inactive; negative
CCCCNS(=O)(=O)c1ccccc1 | inactive; negative
Nc1c(Cl)cc([N+](=O)[O-])cc1Cl | active; positive
C=C(C)C(=O)OCCC | inactive; negative
CC(=O)C(C)=NO | inactive; negative
CN(C)c1ccccc1 | inactive; negative
CCc1ccc(N)cc1 | inactive; negative
C=CCc1cc(OC)c2c(c1)OCO2 | inactive; negative
Cc1cccc(Br)c1 | inactive; negative
Cc1ccccc1C(=O)O | inactive; negative
C=C(Cl)C(=O)OC | active; positive
Clc1cccc2ccccc12 | active; weakly positive
C=CC(=O)OCC(Br)CBr (configuration not stated) | active; positive
CC=C(C)C#N | inactive; negative
Nc1c2ccccc2nc2ccccc12 | active; positive
NC(=O)c1ccccc1 | inactive; negative
O=Nc1ccc(NO)cc1 | active; positive
C=C(C#N)C(=O)OC | active; positive
CCOC(=O)CC(SP(=S)(OC)OC)C(=O)OCC (configuration not stated) | inactive; negative
O=C(O)COc1cc(Cl)c(Cl)cc1Cl | inactive; negative
CCN(CC)C(=S)S | inactive; negative
COc1cc(Cl)c(OC)cc1Cl | active; positive
CC(=O)C=Cc1ccco1 | inactive; negative
Oc1ccc(Cl)cc1Cc1ccccc1 | inactive; negative
CN(C)CCN(Cc1ccccc1)c1ccccn1 | inactive; negative

SMILES | outcome
O=c1n(CC2CO2)c(=O)n(CC2CO2)c(=O)n1CC1CO1 (configuration not stated) | active; positive
CC(=O)Nc1ccc(C(=O)CCl)cc1 | active; positive
CC(C)(OO)c1ccccc1 | active; positive
C#CCO | active; positive
COc1cc2c(c(OC)c1OC)-c1ccc(OC)c(=O)cc1[C@@H](NC(C)=O)CC2 | inactive; negative
O=S(=O)(O)c1ccccc1 | inactive; negative
CCOC(C)OCC | active; positive
BrC(Br)C(Br)Br | inactive; negative
Nc1nc2cc(Cl)c(Cl)cc2s1 | inactive; negative
COc1ccc(C(=O)Nc2ccccc2)cc1[N+](=O)[O-] | active; positive
Cc1c(C)c2c(c(C)c1OC(=O)CCC(=O)O)CC[C@@](C)(CCC[C@H](C)CCC[C@H](C)CCCC(C)C)O2 | inactive; negative
CCCCCON=O | active; positive
Oc1cccc(O)c1O | active; positive
CCCCN(CC)CC | inactive; negative
O=[N+]([O-])c1ccc(CCO)cc1 | active; positive
CCO | inactive; negative
COC(=O)c1ccccc1N | inactive; negative
Cc1cc(C)cc(N)c1 | active; weakly positive
O=Cc1ccccc1 | inactive; negative
NC(=O)c1ncn([C@@H]2O[C@H](CO)[C@@H](O)[C@H]2O)n1 | inactive; negative
CCOCCO | inactive; negative
Cc1ccc(Br)cc1 | inactive; negative
C=CCc1ccc(OC)c(OC)c1 | inactive; negative
c1ccc(NNc2ccccc2)cc1 | active; positive
Brc1ccccc1-c1ccccc1 | inactive; negative
Cc1ccccc1C | inactive; negative

SMILES | outcome
COc1cc(OC)c(OC)cc1C=O | inactive; negative
O=[N+]([O-])c1c2ccccc2cc2ccccc12 | active; positive
O=C(O)CS | inactive; negative
CCCCNCCCC | inactive; negative
O=[N+]([O-])c1ccccc1CCO | active; positive
COc1cc2c(c3oc(=O)c4c(c13)CCC4=O)[C@@H]1C=CO[C@@H]1O2 | active; positive
Cc1c(O)c(Br)c(Br)c(Br)c1Br | inactive; negative
Cc1c(C(=O)O)c(O)cc2c1C(=O)c1c(O)c([C@@H]3O[C@H](CO)[C@@H](O)[C@H](O)[C@H]3O)c(O)c(O)c1C2=O | active; weakly positive
COC(=O)CCCC(=O)OC | inactive; negative
CCOC(=O)C1OC1(C)c1ccccc1 (configuration not stated) | inactive; negative
Cc1ccc(N)c([N+](=O)[O-])c1 | active; positive
O=C(O)C(Cl)Br (configuration not stated) | active; positive
O=C(Nc1ccccc1)c1cc2ccccc2c(N=Nc2cc(Cl)ccc2Cl)c1O | active; weakly positive
CCC(C)Nc1ccc(NC(C)CC)cc1 (configuration not stated) | inactive; negative
Cc1cc(C)cc(O)c1 | inactive; negative
O=C(O)C(=O)O | inactive; negative
C=C(Cl)CSC(=S)N(CC)CC | active; positive
CC(C)O | inactive; negative
CCCCC(=O)N(C)C | inactive; negative
O=C1CCc2ccccc2O1 | inactive; negative
CCN(CC)C(=O)C(Cl)=C(C)OP(=O)(OC)OC | active; positive
CCCc1cc(=O)[nH]c(=S)[nH]1 | inactive; negative
Cc1cccc([N+](=O)[O-])c1N | active; positive
CC(C)(COCC1CO1)COCC1CO1 (configuration not stated) | active; positive
CCCCCC=CC=CC=O | inactive; negative
OCCCBr | active; positive

SMILES | outcome
Nc1cc([N+](=O)[O-])cc(Cl)c1O | active; positive
C=C(C)C(=O)OCC(C)C | inactive; negative
c1ccc(SCCSc2ccccc2)cc1 | inactive; negative
Cc1cccc(C(=O)O)c1[N+](=O)[O-] | active; positive
C=C(F)F | active; positive
CCC[N+](CCC)(CCC)CCC | active; weakly positive
CCCCN | inactive; negative
Nc1ccc([N+](=O)[O-])cc1[N+](=O)[O-] | active; positive
ClC(Cl)C(Cl)Cl | inactive; negative
Cc1ccc(N)cc1[N+](=O)[O-] | active; positive
CCCCn1cc[n+](C)c1 | inactive; negative
Nc1ccc([N+](=O)[O-])cc1N | active; positive
ClCCBr | active; positive
Cc1ccc(S(=O)(=O)NC2CCCCC2)cc1 | inactive; negative
Nc1c(Cl)c(Cl)nc(C(=O)O)c1Cl | inactive; negative
CCOP(=S)(OCC)SC1OCCOC1SP(=S)(OCC)OCC (configuration not stated) | active; positive
O=[N+]([O-])c1ccc2c(c1)Cc1cccc([N+](=O)[O-])c1-2 | active; positive
CN(CCO)CCO | inactive; negative
CN(C)c1ccc(N)cc1 | active; positive
CC(C)Br | active; positive
CCCCCCCCCCCC(=O)O | inactive; negative
c1ccc(-c2ccccc2)cc1 | inactive; negative
ClC(Cl)=C(Cl)C(Cl)=C(Cl)Cl | inactive; negative
Oc1ccc2cc(SSc3ccc4cc(O)ccc4c3)ccc2c1 | inactive; negative
